In ChEMBL document CHEMBL1201862, “PubChem BioAssay data set” (2004):
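All cell lines were grown in 96-well plates and treated with compound for 48 hours. GI50: concentration for 50% inhibition of growth.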 The source made the active and inactive calls. Cut-off read from the data, not from the text of the source: active = GI50 up to about 1.1 µM and inactive = higher.

Tests used:
Experiment in all cases: NCI-60 cell line screen, 48 h
KM12 = test system: KM12
OVCAR-3 = test system: OVCAR-3
HOP-92 = test system: HOP-92
PC-3 = test system: PC-3
SF-539 = test system: SF-539
RPMI-8226 = test system: RPMI-8226
HCC 2998 = test system: HCC 2998
ACHN = test system: ACHN
HOP-62 = test system: HOP-62
Malme-3M = test system: Malme-3M
SW-620 = test system: SW-620
SR = test system: SR
SK-MEL-5 = test system: SK-MEL-5
NCI-H460 = test system: NCI-H460
NCI-H226 = test system: NCI-H226
UACC-62 = test system: UACC-62
HL-60 = test system: HL-60
CAKI-1 = test system: CAKI-1
COLO 205 = test system: COLO 205
LOX IMVI = test system: LOX IMVI

Measured: GI50

Clc1ccc(C(Cc2cccc(Cl)c2)c2c(Cl)nc(N3CCNCC3)nc2Cl)cc1 (stereo not given)
inactive: KM12 13.9 µM | OVCAR-3 15.8 µM | HOP-92 13.9 µM | PC-3 16.9 µM | SF-539 19.5 µM | RPMI-8226 22.3 µM | HCC 2998 15.1 µM | ACHN 15.5 µM | HOP-62 15.4 µM | Malme-3M 13.6 µM | SW-620 16.5 µM | SR 5.38 µM | SK-MEL-5 16.1 µM | NCI-H460 16.7 µM | NCI-H226 3.12 µM | UACC-62 19.5 µM | HL-60 11.1 µM | CAKI-1 12.1 µM | COLO 205 2.9 µM | LOX IMVI 12.9 µM

CCOC(=O)CCC(NC(=O)c1ccc(Nc2nc3cc(C(F)(F)F)ccc3nc2-c2ccccc2)cc1)C(=O)OCC (stereo not given)
inactive: KM12 17.7 µM | OVCAR-3 > 100 µM | HOP-92 17.7 µM | PC-3 > 100 µM | SF-539 31.3 µM | RPMI-8226 24.7 µM | HCC 2998 24.3 µM | ACHN 21 µM | HOP-62 > 100 µM | Malme-3M 28.2 µM | SW-620 30.5 µM | SR 13.2 µM | SK-MEL-5 18.6 µM | NCI-H460 24.4 µM | NCI-H226 20.7 µM | UACC-62 13.3 µM | HL-60 36.1 µM | CAKI-1 20.5 µM | COLO 205 22.4 µM | LOX IMVI 19.8 µM

C[n+]1cccc2ccc3cccnc3c21
inactive: KM12 9.08 µM | OVCAR-3 26.3 µM | HOP-92 57.7 µM | PC-3 27.5 µM | SF-539 48 µM | RPMI-8226 4.91 µM | HCC 2998 49.2 µM | ACHN 20.9 µM | HOP-62 19.5 µM | Malme-3M 16.1 µM | SW-620 32.4 µM | SR > 100 µM | SK-MEL-5 16.2 µM | NCI-H460 23.2 µM | NCI-H226 20.6 µM | UACC-62 55.3 µM | HL-60 > 100 µM | CAKI-1 > 100 µM | COLO 205 17.7 µM | LOX IMVI 29 µM
